The text below walks through data of patent publication US8722589B2, “Use of 1-alkyl-5-oxopyrrolidine-3-carboxylic esters as gas hydrate inhibitors with improved biodegradability” (Clariant Finance (BVI) Limited, priority 2007, dated 2014).

One data set is described as follows: Biodegradability to OECD 306.
Conditions: not given
With `CC(C)CN1CC(C(=O)OCC(COC(=O)C2CC(=O)N(CC(C)C)C2)OC(=O)C2CC(=O)N(CC(C)C)C2)CC1=O` (stereo not shown) [Example 12, glyceryl tri(1-isobutyl-5-oxopyrrolidine-3-carboxylate)], the “Biodegradability 28 days (OECD 306)” value is recorded as 85.
Take `CN1CC(C(=O)OCC(COC(=O)C2CC(=O)N(C)C2)OC(=O)C2CC(=O)N(C)C2)CC1=O` (stereo not shown) [Example 3, glyceryl tri(1-methyl-5-oxopyrrolidine-3-carboxylate)]: the “Biodegradability 28 days (OECD 306)” value worked out at 90.

A further data set can be described thus: Kinetic gas hydrate inhibition in stirred steel autoclave (water/natural gas). The settings on record: 5000 ppm based on water phase; 50 bar natural gas; cooled 20° C. to 4° C.; water:gas 20:80. On the procedure: (§1) To investigate the inhibiting action of the 1-alkyl-5-oxopyrrolidine-3-carboxylic esters, a stirred steel autoclave with temperature control, pressure and torque sensor of capacity 450 ml was used. For studies of kinetic inhibition, the autoclave was filled with distilled water and gas in a volume ratio of 20:80; for studies of agglomerate inhibition, condensate was additionally added. Subsequently, 50 bar of natural gas were injected.
At first, a pressure decrease corresponding to the thermal compression of the gas is observed. When the formation of gas hydrate nuclei occurs during the cooling time, the pressure measured falls, and a rise in the torque measured and a slight increase in the temperature are observed. […] When the mixture is heated, the gas hydrates decompose, so that the starting state of the experimental series is attained.
(§2) The measure used for the inhibiting action of the product is the time from the attainment of the minimum temperature of 4° C. until the first gas absorption (Tind) or the time until the torque rises (Tagg). Long induction times or agglomeration times indicate an effect as a kinetic inhibitor. The torque measured in the autoclave serves, in contrast, as a parameter for the agglomeration of the hydrate crystals.
Composition of the natural gas used:
The dosage in all tests was 5000 ppm based on the water phase.
In the case of `CC(C)CN1CC(C(=O)OCC(COC(=O)C2CC(=O)N(CC(C)C)C2)OC(=O)C2CC(=O)N(CC(C)C)C2)CC1=O` (stereo not shown) [Example 12, glyceryl tri(1-isobutyl-5-oxopyrrolidine-3-carboxylate)], the “Tagg (time until the torque rises)” value is reported as 18.8 h and the “Tind (time from attainment of 4° C. until first gas absorption)” value (“Tind” below) worked out at 18.1 h.
The like results for `CN1CC(C(=O)OCC(COC(=O)C2CC(=O)N(C)C2)OC(=O)C2CC(=O)N(C)C2)CC1=O` (stereo not shown) [Example 3, glyceryl tri(1-methyl-5-oxopyrrolidine-3-carboxylate)] were, in that order, 12.5 h and 12.0 h.
On to `CC(C)COC(=O)C1CC(=O)N(C)C1` (stereo not shown) [Example 1, isobutyl 1-methyl-5-oxopyrrolidine-3-carboxylate], for which the “Tagg (time until the torque rises)” value is 11.0 h and the “Tind” value is listed as 10.9 h.
On to `CC(C)COC(=O)C1CC(=O)N(CC(C)C)C1` (stereo not shown) [Example 10, isobutyl 1-isobutyl-5-oxopyrrolidine-3-carboxylate], for which the “Tagg (time until the torque rises)” value is on record as 17.0 h and the “Tind” value is 16.1 h.
The like results for `CC(C)CN1CC(C(=O)OCC(CO)(CO)COC(=O)C2CC(=O)N(CC(C)C)C2)CC1=O` (stereo not shown) [Example 13, pentaerythrityl di(1-isobutyl-5-oxopyrrolidine-3-carboxylate)] were, in that order, 17.4 h and 16.9 h.
For `CN1CC(C(=O)OCC(CO)(CO)COC(=O)C2CC(=O)N(C)C2)CC1=O` (stereo not shown) [Example 4, pentaerythritol di(1-methyl-5-oxopyrrolidine-3-carboxylate)], in that order: 11.5 h and 11.4 h.
For `CCCCC(CC)COC(=O)C1CC(=O)N(C)C1` (stereo not shown) [Example 2, 2-ethylhexyl 1-methyl-5-oxopyrrolidine-3-carboxylate], in that order: 11.7 h and 11.5 h.
For `CCCCOCCOCCOCCOC(=O)C1CC(=O)N(C)C1` (stereo not shown) [Example 6, butyltriglycol 1-methyl-5-oxopyrrolidine-3-carboxylate], the “Tagg (time until the torque rises)” value is given as 13.4 h and the “Tind” value is on record as 13.1 h.
For the compound `CCCCC(CC)COC(=O)C1CC(=O)N(CC(C)C)C1` (stereo not shown) [Example 11, 2-ethylhexyl 1-isobutyl-5-oxopyrrolidine-3-carboxylate], the “Tagg (time until the torque rises)” value came to 18.3 h and the “Tind” value was determined as 17.5 h.
For “dipentaerythrityl tetra(1-isobutyl-5-oxopyrrolidine-3-carboxylate) [Example 14]”, in that order: 15.9 h and 15.3 h.
The like results for `CCCCOCCOCCOCCOC(=O)C1CC(=O)N(CC(C)C)C1` (stereo not shown) [Example 15, butyltriglycol 1-isobutyl-5-oxopyrrolidine-3-carboxylate] were, in that order, 17.2 h and 16.1 h.
The like results for `CN1CC(C(=O)OCC(CO)(COCC(CO)(COC(=O)C2CC(=O)N(C)C2)COC(=O)C2CC(=O)N(C)C2)COC(=O)C2CC(=O)N(C)C2)CC1=O` (stereo not shown) [Example 5, dipentaerythrityl tetra(1-methyl-5-oxopyrrolidine-3-carboxylate)] were, in that order, 10.1 h and 10.0 h.

A further data set is described as follows: Agglomerate inhibition in stirred autoclave (water/white spirit/natural gas). The conditions noted are these: 5000 ppm based on water phase; water and white spirit 1:2; 50 bar; 500 rpm; 4° C. On the procedure:
as §1, §2
In order to test the action as agglomerate inhibitors, the test autoclave used above was initially charged with water and white spirit (20% of the volume in a ratio of 1:2) and, based on the water phase, 5000 ppm of the particular additive were added.
At an autoclave pressure of 50 bar and a stirrer speed of 500 rpm, the temperature was cooled from initially 20° C. within 3 hours to 4° C., then the autoclave was stirred at 4° C. for 18 hours and heated up again. In the course of this, the agglomeration time up to occurrence of gas hydrate agglomerates and the torque which occurred on the stirrer at that time were measured, the latter being a measure of the agglomeration of the gas hydrates.
The comparative substance employed was a commercially available antiagglomerant (quaternary ammonium salt).
Take `CCCCCCCC/C=C\CCCCCCCCN1CC(C(=O)OCC(CO)(CO)COC(=O)C2CC(=O)N(CCCCCCCC/C=C\CCCCCCCC)C2)CC1=O` (stereo not shown) [Example 22, pentaerythrityl di(1-oleyl-5-oxopyrrolidine-3-carboxylate)]: the “Mmax (torque on the stirrer)” value is reported as 1.9 Ncm and the “Tagg (agglomeration time up to occurrence of gas hydrate agglomerates)” value worked out at 3.8 h.
Take `CCCCCCCC/C=C\CCCCCCCCN1CC(C(=O)OCC(C)C)CC1=O` (stereo not shown) [Example 19, isobutyl 1-oleyl-5-oxopyrrolidine-3-carboxylate]: the “Mmax (torque on the stirrer)” value is listed as 1.2 Ncm and the “Tagg (agglomeration time up to occurrence of gas hydrate agglomerates)” value was 6.0 h.
As for “(oleyl alcohol+5 EO) 1-isobutyl-5-oxopyrrolidine-3-carboxylate [Example 16]”, the “Mmax (torque on the stirrer)” value turned out to be 1.0 Ncm and the “Tagg (agglomeration time up to occurrence of gas hydrate agglomerates)” value is 5.9 h.
With “(oleyl alcohol+5 EO) 1-methyl-5-oxopyrrolidine-3-carboxylate [Example 7]”, the “Mmax (torque on the stirrer)” value amounted to 0.9 Ncm and the “Tagg (agglomeration time up to occurrence of gas hydrate agglomerates)” value came to 6.5 h.
On to `CCCCCCCC/C=C\CCCCCCCCN1CC(C(=O)OCC(CC)CCCC)CC1=O` (stereo not shown) [Example 20, 2-ethylhexyl 1-oleyl-5-oxopyrrolidine-3-carboxylate], for which the “Mmax (torque on the stirrer)” value turned out to be 2.1 Ncm and the “Tagg (agglomeration time up to occurrence of gas hydrate agglomerates)” value is recorded as 3.5 h.
Consider `CCCCCCCC/C=C\CCCCCCCCN1CC(C(=O)OCC(COC(=O)C2CC(=O)N(CCCCCCCC/C=C\CCCCCCCC)C2)OC(=O)C2CC(=O)N(CCCCCCCC/C=C\CCCCCCCC)C2)CC1=O` (stereo not shown) [Example 21, glyceryl tri(1-oleyl-5-oxopyrrolidine-3-carboxylate)], for which the “Mmax (torque on the stirrer)” value is recorded as 2.0 Ncm and the “Tagg (agglomeration time up to occurrence of gas hydrate agglomerates)” value was 2.9 h.
`CCCCCCCC/C=C\CCCCCCCCN1CC(C(=O)OCC(CO)(COCC(CO)(COC(=O)C2CC(=O)N(CCCCCCCC/C=C\CCCCCCCC)C2)COC(=O)C2CC(=O)N(CCCCCCCC/C=C\CCCCCCCC)C2)COC(=O)C2CC(=O)N(CCCCCCCC/C=C\CCCCCCCC)C2)CC1=O` (stereo not shown) [Example 23, dipentaerythrityl tetra(1-oleyl-5-oxopyrrolidine-3-carboxylate)]: the “Mmax (torque on the stirrer)” value is listed as 2.0 Ncm and the “Tagg (agglomeration time up to occurrence of gas hydrate agglomerates)” value was found to be 3.8 h.
